According to ChEMBL document CHEMBL1201862, “PubChem BioAssay data set” (2004):
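These data come from cells grown in 96-well plates and exposed to compound for 48 hours at five concentrations. GI50: concentration for 50% inhibition of growth.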 The source made the active and inactive calls. No stated cut-off is given here; in the data, active = GI50 up to about 1.1 µM and inactive = higher.

How the values were obtained:
Test in all cases: inhibition of tumour cell growth, NCI panel, 48 h
HOP-62 = test system: HOP-62
UACC-257 = test system: UACC-257
UACC-62 = test system: UACC-62
M14 = test system: M14
786-0 = test system: 786-0
KM12 = test system: KM12
SF-268 = test system: SF-268
RXF 393 = test system: RXF 393
CCRF-CEM = test system: CCRF-CEM
HT-29 = test system: HT-29
OVCAR-4 = test system: OVCAR-4
SNB-19 = test system: SNB-19
OVCAR-3 = test system: OVCAR-3
SW-620 = test system: SW-620
SK-OV-3 = test system: SK-OV-3
SK-MEL-5 = test system: SK-MEL-5
CAKI-1 = test system: CAKI-1
IGROV-1 = test system: IGROV-1
K562 = test system: K562
HCT-15 = test system: HCT-15

SMILES	GI50 (HOP-62)	GI50 (UACC-257)	GI50 (UACC-62)	GI50 (M14)	GI50 (786-0)	GI50 (KM12)	GI50 (SF-268)	GI50 (RXF 393)	GI50 (CCRF-CEM)	GI50 (HT-29)	GI50 (OVCAR-4)	GI50 (SNB-19)	GI50 (OVCAR-3)	GI50 (SW-620)	GI50 (SK-OV-3)	GI50 (SK-MEL-5)	GI50 (CAKI-1)	GI50 (IGROV-1)	GI50 (K562)	GI50 (HCT-15)
O=C(c1ccccc1)c1cccc(C(=O)c2ccccc2)c1	> 100 µM (inactive)	> 100 µM (inactive)	> 100 µM (inactive)	> 100 µM (inactive)	> 100 µM (inactive)	44.1 µM (inactive)	> 100 µM (inactive)	76.4 µM (inactive)	63.8 µM (inactive)	> 100 µM (inactive)	> 100 µM (inactive)	> 100 µM (inactive)	> 100 µM (inactive)	> 100 µM (inactive)	> 100 µM (inactive)	78.9 µM (inactive)	> 100 µM (inactive)	> 100 µM (inactive)	> 100 µM (inactive)	
N#C/C(=C1/c2cc([N+](=O)[O-])ccc2-c2c1cc([N+](=O)[O-])cc2[N+](=O)[O-])N1CCCCC1	32.4 µM (inactive)	> 100 µM (inactive)	68.4 µM (inactive)	86.9 µM (inactive)	39.2 µM (inactive)	> 100 µM (inactive)	> 100 µM (inactive)	34.6 µM (inactive)	> 100 µM (inactive)	> 100 µM (inactive)	23.9 µM (inactive)	> 100 µM (inactive)	> 100 µM (inactive)	> 100 µM (inactive)	93.1 µM (inactive)	91.4 µM (inactive)	> 100 µM (inactive)	49.5 µM (inactive)	> 100 µM (inactive)	> 100 µM
C=CC(C)CCC(C/C=C(\C)CCCC(C)C)C(=C)CCCC(C)C (stereo unspecified)	> 100 µM (inactive)	> 100 µM (inactive)	> 100 µM (inactive)	> 100 µM (inactive)	> 100 µM (inactive)	> 100 µM (inactive)	> 100 µM (inactive)	> 100 µM (inactive)	> 100 µM (inactive)		> 100 µM (inactive)	> 100 µM (inactive)	> 100 µM (inactive)	> 100 µM (inactive)	> 100 µM (inactive)	> 100 µM (inactive)	> 100 µM (inactive)	> 100 µM (inactive)	> 100 µM (inactive)	> 100 µM
N#CC(C#N)=Cc1ccc(Oc2ccccc2)cc1	65.8 µM (inactive)	25.6 µM (inactive)	16.8 µM (inactive)	22.2 µM (inactive)	18.2 µM (inactive)	39.3 µM (inactive)	27.9 µM (inactive)	30.5 µM (inactive)	23.8 µM (inactive)	22.4 µM (inactive)		37.3 µM (inactive)	26.4 µM (inactive)	32.4 µM (inactive)	> 100 µM (inactive)	24.5 µM (inactive)	43.8 µM (inactive)	29.9 µM (inactive)	26.7 µM (inactive)	70.5 µM
CCCNC(=O)OCc1c(COC(=O)NCCC)c(-c2ccc(Cl)c(Cl)c2)n2c1CCC2	6.01 µM (inactive)	4.79 µM (inactive)	2.8 µM (inactive)	10.6 µM (inactive)	2.82 µM (inactive)	10.7 µM (inactive)	4.33 µM (inactive)	2.35 µM (inactive)	1.98 µM (inactive)	4.12 µM (inactive)		8.93 µM (inactive)	14 µM (inactive)	4.63 µM (inactive)	2.81 µM (inactive)	5.98 µM (inactive)	1.72 µM (inactive)	1.05 µM (active)	4.31 µM (inactive)	4.18 µM
CN1C(=S)CSc2ccccc21	> 100 µM (inactive)	> 100 µM (inactive)		> 100 µM (inactive)	> 100 µM (inactive)	> 100 µM (inactive)	> 100 µM (inactive)	> 100 µM (inactive)	> 100 µM (inactive)	> 100 µM (inactive)	> 100 µM (inactive)	> 100 µM (inactive)	> 100 µM (inactive)	> 100 µM (inactive)	> 100 µM (inactive)	97.1 µM (inactive)	> 100 µM (inactive)	> 100 µM (inactive)	> 100 µM (inactive)	> 100 µM
COc1ccc(N2C(=O)[C@@H]3[C@H](C2=O)c2[nH]c4ccccc4c2C2CCC(C(C)(C)C)C[C@@H]23)cc1 (stereo partly specified)	16.5 µM (inactive)	40.6 µM (inactive)	19.1 µM (inactive)	29.2 µM (inactive)	14.9 µM (inactive)	38.7 µM (inactive)	29.9 µM (inactive)	17.3 µM (inactive)	15.3 µM (inactive)	29.2 µM (inactive)		22.1 µM (inactive)	21.5 µM (inactive)	35.2 µM (inactive)	18.6 µM (inactive)	41.2 µM (inactive)	27.7 µM (inactive)	34.1 µM (inactive)	14.5 µM (inactive)	> 90.4 µM
N#Cc1nc(COCCOCc2ccc(F)cc2)oc1N	> 100 µM (inactive)	> 100 µM (inactive)	> 100 µM (inactive)	> 100 µM (inactive)	> 100 µM (inactive)	> 100 µM (inactive)	> 100 µM (inactive)	> 100 µM (inactive)	64.6 µM (inactive)	> 100 µM (inactive)	> 100 µM (inactive)		> 100 µM (inactive)	> 100 µM (inactive)	> 100 µM (inactive)	> 100 µM (inactive)	> 100 µM (inactive)	> 100 µM (inactive)	> 100 µM (inactive)	> 100 µM
Cc1ccccc1NC(=O)c1nc(S)nc(N)c1-c1ccccc1C	> 100 µM (inactive)	> 100 µM (inactive)	> 100 µM (inactive)	> 100 µM (inactive)	> 100 µM (inactive)	> 100 µM (inactive)	> 100 µM (inactive)	> 100 µM (inactive)	> 100 µM (inactive)	> 100 µM (inactive)	> 100 µM (inactive)	> 100 µM (inactive)	> 100 µM (inactive)	> 100 µM (inactive)	> 100 µM (inactive)	> 100 µM (inactive)	> 100 µM (inactive)	> 100 µM (inactive)	> 100 µM (inactive)	> 100 µM
Cc1ccc2c(c1)C(=O)C1(C2)Cc2ccc(C)cc2C1=O	> 100 µM (inactive)	> 100 µM (inactive)		> 100 µM (inactive)	> 100 µM (inactive)		> 100 µM (inactive)	> 100 µM (inactive)	> 100 µM (inactive)	> 100 µM (inactive)	> 100 µM (inactive)	> 100 µM (inactive)	> 100 µM (inactive)	> 100 µM (inactive)	> 100 µM (inactive)	> 100 µM (inactive)	> 100 µM (inactive)	> 100 µM (inactive)	> 100 µM (inactive)	> 100 µM
COc1cc2c(c(OC)c1OC)-c1ccc(SC)c(=O)cc1C(CC(=O)Oc1ccccc1F)C2 (stereo unspecified)	0.0175 µM (active)		< 0.0075 µM (active)	0.0175 µM (active)	< 0.0075 µM (active)	< 0.0075 µM (active)	0.036 µM (active)	< 0.0075 µM (active)	0.0132 µM (active)	0.00841 µM (active)	1.03 µM (active)	0.0139 µM (active)	0.0119 µM (active)	0.00802 µM (active)	0.0202 µM (active)	0.0215 µM (active)	0.0172 µM (active)	0.164 µM (active)	< 0.0075 µM (active)	0.0122 µM
CCCCCCCCCCCCCCCCCc1nc(Cl)nc(Cl)c1Cl	> 100 µM (inactive)		> 100 µM (inactive)	> 100 µM (inactive)	> 100 µM (inactive)	> 100 µM (inactive)	> 100 µM (inactive)	> 100 µM (inactive)	34.8 µM (inactive)	> 100 µM (inactive)	> 100 µM (inactive)	> 100 µM (inactive)	> 100 µM (inactive)	> 100 µM (inactive)	> 100 µM (inactive)	17.3 µM (inactive)	> 100 µM (inactive)	> 100 µM (inactive)	> 100 µM (inactive)	> 100 µM
O=C1N=CN=C2C=CC(Cl)=C(I)C12 (stereo unspecified)	67.5 µM (inactive)	> 100 µM (inactive)	45.3 µM (inactive)	> 100 µM (inactive)	> 100 µM (inactive)	> 100 µM (inactive)	20.2 µM (inactive)	23.3 µM (inactive)	> 100 µM (inactive)	> 100 µM (inactive)	> 100 µM (inactive)	47.9 µM (inactive)	63 µM (inactive)	> 100 µM (inactive)	49.3 µM (inactive)	98.2 µM (inactive)	24.3 µM (inactive)	33.3 µM (inactive)	> 100 µM (inactive)	
CC(=NNC(=S)Nc1ccccc1C)c1cccc(C(C)=NNC(=S)Nc2ccccc2C)n1	6.56 µM (inactive)	27.6 µM (inactive)	45.1 µM (inactive)	15.8 µM (inactive)	4.13 µM (inactive)	24 µM (inactive)	5.81 µM (inactive)	13.4 µM (inactive)	3.59 µM (inactive)	39 µM (inactive)	0.321 µM (active)	> 100 µM (inactive)		57.5 µM (inactive)	> 100 µM (inactive)	1.3 µM (inactive)	42.9 µM (inactive)	26.3 µM (inactive)	31.4 µM (inactive)	8.63 µM
CSc1ccc2c(cc1=O)[C@@H](NC(=O)c1cccc([N+](=O)[O-])c1)CCc1cc(O)c(O)c(O)c1-2	> 100 µM (inactive)	87.9 µM (inactive)	18.3 µM (inactive)	25.3 µM (inactive)	61.2 µM (inactive)	31.2 µM (inactive)	57.9 µM (inactive)	51.2 µM (inactive)	34 µM (inactive)	37.8 µM (inactive)	50 µM (inactive)	> 100 µM (inactive)	35.5 µM (inactive)	23.5 µM (inactive)	42.4 µM (inactive)		67.3 µM (inactive)	46.2 µM (inactive)	26.6 µM (inactive)	36.3 µM
